Test results: US12392778B2, “Method for proteome-wide discovery of covalent ligands and compositions thereof” (BridGene Biosciences, Inc., priority 2019, dated 2025)

Tested on: SK-MEL-28 tumor cells
Experiment: Melanoma CDX model, SK-MEL-28 tumor growth
Format: in vivo, BALB/c nude mice
Conditions: 60 mg/kg subcutaneously twice a day for 5 days, then once a day for 9 days; not statistically significant
Method: For this model, BALB/c nude mice were inoculated subcutaneously (sc) with SK-MEL-28 tumor cells (5×10^6 in 0.1 mL PBS and Matigel, 1:1). […] Throughout the treatment period, tumor sizes were recorded. […] Vehicle control consisted of 5% DMSO and 95% of a 20% 2-hydroxypropyl-beta-cyclodextrin solution. Eight female mice were included in each group. t-test was done using GraphPad Software.

Structure (SMILES): C#CCOc1cccc(Nc2ncnc3ccc(NC(=O)CCl)cc23)c1 [Compound 1]
- Tumor size compared to control: reduce tumor size compared to control starting at day 8
